From patent publication US11608359B2, “Compounds and methods for treating tight junction permeabtility” (9 Meters Biopharma, Inc., priority 2018, dated 2023)
Where no end group is shown, it is not given here.

Assays:
tight junctions = test: activity as tight junction regulators; conditions: for activity as tight junction regulator: peptide fragment alone
[1] = clinical trials, particularly lower doses (e.g., 0.5 mg dose); cited from earlier work

| Substance | activity as tight junction regulator (tight junctions) | activity of full length Larazotide as tight junction regulator (tight junctions; mixed with the two fragments GVLVQPG and VLVQPG) | benefit at reducing CeD symptoms [1] |
| --- | --- | --- | --- |
| VLVQPG | inactive |  |  |
| GVLVQP (Synthetic polymer.) | inactive |  |  |
| GVLVQPG [Larazotide-derived fragment missing N-terminal glycine] | inactive |  |  |
| VLVQP (Synthetic polymer.) | inactive |  |  |
| GGVLVQPG [Larazotide] |  | completely abolished | significant benefit |
